Test results: US9474790B2, “Stable, protracted GLP-1/glucagon receptor co-agonists for medical use” (Novo Nordisk A/S, priority 2013, dated 2016)
pEC50, pIC50: −log10 of the molar value. Numbered stars: 1 amine (or outer) side, 2 acyl side, 3 side chain; on linkers, the order of the positions; unused ones are H or OH. Square brackets hold non-standard residues; d marks the D form. Side chains are listed from the residue outwards. Peptide text beside a SMILES is read from it. * marks the point of attachment. C18 diacid = O=C(O)CCCCCCCCCCCCCCCCC(=O)*; γGlu = O=C(O)[C@H](CCC(=O)[*:2])N[*:1]; AEEA = NCCOCCOCC(=O)O; Aib = CC(C)(N)C(=O)O

Legend:
[1] = target: T1, human glucagon receptor (Homo sapiens, UniProt P47871); assay: Glucagon receptor potency, CRE luciferase reporter gene assay in BHK cells; assay type: cell-based; settings: BHK cells expressing human glucagon receptor, read-out: EC50 GlucR
T1 construct: expressed in transfected cells; host or cells: BHK cells (parent BHK570, CRE luciferase clone BHK/KZ10-20-48), clone pLJ6'-4-25
Method: The purpose of this example was to test the potency, of the glucagon derivatives of the invention, in vitro. The in vitro potency is the measure of human GLP-1 receptor or glucagon receptor activation, respectively, in a whole cell assay.
In vitro potency was determined by measuring the response of human GLP-1 or glucagon receptor, respectively, in a reporter gene assay. The assay was performed in a stably transfected BHK cell line that expresses either the human GLP-1 receptor or the human glucagon receptor and contains the DNA for the cAMP response element (CRE) coupled to a promoter and the gene for firefly luciferase (CRE luciferase). […] When assay incubation was completed, the luciferase substrate (luciferin) was added and the enzyme converted luciferin to oxyluciferin and produces bioluminescence. The luminescence was measured as the readout for the assay.
The cells used in this assay (clone pLJ6′-4-25) were BHK cells with BHK570 as a parent cell line expressing the CRE luciferase gene (clone BHK/KZ10-20-48) and were established by further transfection with the human glucagon receptor (clone pLJ6′ in pHZ-1 vector).
The cells were cultured at 5% CO2 in DMEM medium with 10% FBS, 1×GlutaMAX, 1 mg/ml G418, 240 nM MTX (methotrexate) and 1% pen/strep (penicillin/streptomycin). They were aliquoted and stored in liquid nitrogen. Before each assay, an aliquot was taken up and washed three times in PBS before being suspended at the desired concentration in assay medium. For 96-well plates the suspension was made to give a final concentration of 5×10EE3 cells/well.
The following chemicals were used in the assay: Pluronic F-68 (10%) (Gibco 2404), ovalbumin (Sigma A5503), DMEM w/o phenol red (Gibco 11880-028), 1 M Hepes (Gibco 15630), Glutamax 100× (Gibco 35050) and steadylite plus (PerkinElmer 6016757).
Assay Medium consisted of DMEM w/o phenol red, 10 mM Hepes, 1× GlutaMAX, 2% Ovalbumin and 0.2% Pluronic F-68.
Cell stocks were thawed in a 37° C. water bath. Cells were washed three times in PBS. The cells were counted and adjusted to 5×10EE3 cells/50 μl (1×10EE5 cells/ml) in Assay Medium. A 50 μl aliquot of cells was transferred to each well in the assay plate.
Stocks of the test compounds and reference compounds were diluted to a concentration of […] in Assay Medium. Compounds were diluted 10-fold to give the following concentrations: 2×10EE-6 M, 2×10EE-7 M, 2×10EE-8 M; 2×10EE-9 M, 2×10EE-10 M, 2×10EE-11 M, 2×10EE-12 M and 2×10EE-13 M. For each compound a blank assay medium control was also included.
A 50 μl aliquot of compound or blank was transferred from the dilution plate to the assay plate. Compounds were tested at the following final concentrations: 1×10EE-6 M, 1×10EE-7 M, 1×10EE-8 M; 1×10EE-9 M, 1×10EE-10 M, 1×10EE-11 M and 1×10EE-12 M and 1×10EE-13 M.
The assay plate was incubated for 3 h in a 5% CO2 incubator at 37° C. The assay plate was removed from the incubator and allowed to stand at room temperature for 15 min. A 100 μl aliquot of steadylite plus reagent was added to each well of the assay plate (reagent is light sensitive). Each assay plate was covered with aluminum foil to protect it from light and shaken for 30 min at room temperature. Each assay plate was read in a Perkin Elmer TopCount NXT instrument.
The data from the TopCount instrument was transferred to GraphPad Prism software. The software performed a non-linear regression (log(agonist) vs response-Variable slope (four parameter)). EC50 values were calculated by the software and reported in pM.

[2] = target: T2, human GLP-1 receptor (Homo sapiens, UniProt P43220); assay: GLP-1 receptor potency, CRE luciferase reporter gene assay in BHK cells; assay type: cell-based; settings: BHK cells expressing human GLP-1 receptor, read-out: EC50 GLP-1R
T2 construct: expressed in transfected cells; host or cells: BHK cells (parent BHKTS13), clone FCW467-12A/KZ10-1, with CRE luciferase
Procedure, shortened: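 Potency as cAMP-driven firefly luciferase signal after 3 h, 37° C exposure to 10-fold dilutions (final 1×10EE-13–1×10EE-6 M). Stable hGLP-1R/CRE-luc BHK clone, 5×10EE3 cells/well, medium containing 2% ovalbumin and 0.2% Pluronic F-68; EC50 (pM) from variable-slope non-linear regression.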

[3] = target: T2, human GLP-1 receptor; assay: GLP-1 receptor binding, 125I-GLP-1 displacement SPA on isolated membranes; settings: displacement of 125I-GLP-1 from membranes; read-out: IC50 GLP-1R
Procedure, shortened: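 Test derivatives, serially diluted, competed with 125I-GLP-1(7-36)NH2 for the human GLP-1 receptor on BHK membranes, read by WGA-bead scintillation proximity after 2 h at 30°C, pH 7.4 HEPES/EGTA/MgCl2 buffer. Final serum albumin was either ≤0.001% or 2.0%; IC50 from non-linear fit.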

T2 sequence (P43220 24-463): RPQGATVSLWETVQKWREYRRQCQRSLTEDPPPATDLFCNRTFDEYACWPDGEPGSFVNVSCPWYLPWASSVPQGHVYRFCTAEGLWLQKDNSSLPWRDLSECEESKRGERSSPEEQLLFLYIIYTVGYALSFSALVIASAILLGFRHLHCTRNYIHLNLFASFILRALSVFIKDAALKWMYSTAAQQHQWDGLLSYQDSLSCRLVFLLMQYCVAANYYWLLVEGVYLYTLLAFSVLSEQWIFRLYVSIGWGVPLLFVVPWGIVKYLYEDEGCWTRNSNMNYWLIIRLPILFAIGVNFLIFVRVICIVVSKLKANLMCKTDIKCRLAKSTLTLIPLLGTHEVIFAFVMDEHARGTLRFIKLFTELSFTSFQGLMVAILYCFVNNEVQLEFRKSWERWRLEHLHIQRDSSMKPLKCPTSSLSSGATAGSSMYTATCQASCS
T1 sequence (P47871 26-477): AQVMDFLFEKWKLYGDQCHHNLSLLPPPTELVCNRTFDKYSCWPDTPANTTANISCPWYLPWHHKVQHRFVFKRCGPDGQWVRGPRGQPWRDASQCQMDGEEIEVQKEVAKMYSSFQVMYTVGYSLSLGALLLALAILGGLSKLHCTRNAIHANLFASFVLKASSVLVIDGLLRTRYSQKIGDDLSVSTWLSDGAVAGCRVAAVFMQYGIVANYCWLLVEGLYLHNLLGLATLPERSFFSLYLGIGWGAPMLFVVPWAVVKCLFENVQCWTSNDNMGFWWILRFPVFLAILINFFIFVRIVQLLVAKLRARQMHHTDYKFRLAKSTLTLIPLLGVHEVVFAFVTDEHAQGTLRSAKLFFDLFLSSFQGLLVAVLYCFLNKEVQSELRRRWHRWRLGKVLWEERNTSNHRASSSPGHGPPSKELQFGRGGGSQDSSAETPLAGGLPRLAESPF

pEC50 [1]	pEC50 [2]	pIC50 [3]	SMILES
10.80	11.40	–	CC(C)C[C@H](NC(=O)[C@H](Cc1ccc(O)cc1)NC(=O)[C@H](CCCCN)NC(=O)[C@H](CO)NC(=O)[C@H](CC(C)C)NC(=O)[C@H](CC(=O)O)NC(=O)[C@H](CO)NC(=O)[C@@H](NC(=O)[C@H](Cc1ccccc1)NC(=O)[C@@H](NC(=O)CNC(=O)[C@H](CCC(N)=O)NC(=O)C(C)(C)NC(=O)[C@@H](N)Cc1c[nH]cn1)[C@@H](C)O)[C@@H](C)O)C(=O)N[C@@H](CC(=O)O)C(=O)N[C@@H](CO)C(=O)N[C@@H](CCCNC(=N)N)C(=O)N[C@@H](CCCNC(=N)N)C(=O)N[C@@H](C)C(=O)N[C@@H](CCCNC(=N)N)C(=O)N[C@@H](CC(=O)O)C(=O)N[C@@H](Cc1ccccc1)C(=O)N[C@H](C(=O)N[C@@H](CCC(N)=O)C(=O)N[C@@H](Cc1c[nH]c2ccccc12)C(=O)N[C@@H](CC(C)C)C(=O)N[C@@H](CC(C)C)C(=O)N[C@@H](CCCCNC(=O)CC[C@H](NC(=O)CC[C@H](NC(=O)COCCOCCNC(=O)COCCOCCNC(=O)CC[C@H](NC(=O)CCCCCCCCCCCCCCCCC(=O)O)C(=O)O)C(=O)O)C(=O)O)C(=O)N[C@H](C(N)=O)[C@@H](C)O)C(C)C [Example 4, N^ε28-[(4S)-4-carboxy-4-[[(4S)-4-carboxy-4-[[2-[2-[2-[[2-[2-[2-[[(4S)-4-carboxy-4-(17-carboxyheptadecanoylamino)butanoyl]amino]ethoxy]ethoxy]acetyl]amino]ethoxy]ethoxy]acetyl]amino]butanoyl]amino]butanoyl]-[Aib2,Leu10,Arg20,Leu27,Lys28]-Glucagon amide] (H-H[Aib]QGTFTSDLSKYLDSRRARDFVQWLLK([γGlu-γGlu-AEEA-AEEA-γGlu-C18 diacid])T-NH2; N-terminus assumed)
10.27	11.10	–	CC(C)C[C@H](NC(=O)[C@H](Cc1ccc(O)cc1)NC(=O)[C@H](CCCCN)NC(=O)[C@H](CO)NC(=O)[C@H](CC(C)C)NC(=O)[C@H](CC(=O)O)NC(=O)[C@H](CO)NC(=O)[C@@H](NC(=O)[C@H](Cc1ccccc1)NC(=O)[C@@H](NC(=O)CNC(=O)[C@H](CCC(N)=O)NC(=O)C(C)(C)NC(=O)[C@@H](N)Cc1c[nH]cn1)[C@@H](C)O)[C@@H](C)O)C(=O)N[C@@H](CC(=O)O)C(=O)N[C@@H](CCCCNC(=O)CC[C@H](NC(=O)CC[C@H](NC(=O)COCCOCCNC(=O)COCCOCCNC(=O)CC[C@H](NC(=O)CCCCCCCCCCCCCCCCC(=O)O)C(=O)O)C(=O)O)C(=O)O)C(=O)N[C@@H](CCCNC(=N)N)C(=O)N[C@@H](CCCNC(=N)N)C(=O)N[C@@H](C)C(=O)N[C@@H](CCCNC(=N)N)C(=O)N[C@@H](CC(=O)O)C(=O)N[C@@H](Cc1ccccc1)C(=O)N[C@H](C(=O)N[C@@H](CCC(N)=O)C(=O)N[C@@H](Cc1c[nH]c2ccccc12)C(=O)N[C@@H](CC(C)C)C(=O)N[C@@H](CC(C)C)C(=O)N[C@@H](CO)C(=O)N[C@H](C(N)=O)[C@@H](C)O)C(C)C [Example 1, N^ε16-[(4S)-4-carboxy-4-[[(4S)-4-carboxy-4-[[2-[2-[2-[[2-[2-[2-[[(4S)-4-carboxy-4-(17-carboxyheptadecanoylamino)butanoyl]amino]ethoxy]ethoxy]acetyl]amino]ethoxy]ethoxy]acetyl]amino]butanoyl]amino]butanoyl]-[Aib2,Leu10,Lys16,Arg20,Leu27,Ser28]-Glucagon amide] (H-H[Aib]QGTFTSDLSKYLDK([γGlu-γGlu-AEEA-AEEA-γGlu-C18 diacid])RRARDFVQWLLST-NH2; N-terminus assumed)
10.77	11.40	9.15	CC(C)C[C@H](NC(=O)[C@H](CC(=O)O)NC(=O)[C@H](CC(C)C)NC(=O)[C@H](Cc1ccc(O)cc1)NC(=O)[C@H](CCCCN)NC(=O)[C@H](CO)NC(=O)[C@@H](NC(=O)[C@H](CC(=O)O)NC(=O)[C@H](CO)NC(=O)[C@@H](NC(=O)[C@H](Cc1ccccc1)NC(=O)[C@@H](NC(=O)CNC(=O)[C@H](CCC(N)=O)NC(=O)C(C)(C)NC(=O)[C@@H](N)Cc1c[nH]cn1)[C@@H](C)O)[C@@H](C)O)C(C)C)C(=O)N[C@@H](CCCNC(=N)N)C(=O)N[C@@H](CCCNC(=N)N)C(=O)N[C@@H](C)C(=O)N[C@@H](CCC(N)=O)C(=O)N[C@@H](CC(=O)O)C(=O)N[C@@H](Cc1ccccc1)C(=O)N[C@H](C(=O)N[C@@H](CCC(N)=O)C(=O)N[C@@H](Cc1c[nH]c2ccccc12)C(=O)N[C@@H](CC(C)C)C(=O)N[C@@H](CC(C)C)C(=O)N[C@@H](CCCCNC(=O)COCCOCCNC(=O)COCCOCCNC(=O)CC[C@H](NC(=O)CC[C@H](NC(=O)CC[C@H](NC(=O)CCCCCCCCCCCCCCCCC(=O)O)C(=O)O)C(=O)O)C(=O)O)C(=O)N[C@H](C(N)=O)[C@@H](C)O)C(C)C [Example 71, N^ε28-[2-[2-[2-[[2-[2-[2-[[(4S)-4-carboxy-4-[[(4S)-4-carboxy-4-[[(4S)-4-carboxy-4-(17-carboxyheptadecanoylamino)butanoyl]amino]butanoyl]amino]butanoyl]amino]ethoxy]ethoxy]acetyl]amino]ethoxy]ethoxy]acetyl]-[Aib2,Val10,Leu16,Leu27,Lys28]-Glucagon amide] (H-H[Aib]QGTFTSDVSKYLDLRRAQDFVQWLLK([AEEA-AEEA-γGlu-γGlu-γGlu-C18 diacid])T-NH2)
